Data set [1] concerns the target T1, HIV protease (Human immunodeficiency virus type 1 group M subtype B, UniProt P04585).
T1 construct: final enzyme concentration of 12.3 nanomolar, based on a molecular weight of 10,780
The data set is described as follows: HIV protease enzyme assay (fluorescence, peptide substrate). It counts as biochemical. The conditions noted are these: HIV protease 12.3 nanomolar, substrate 80 μM, pH 6.4, ambient temperature. The text has this: The compounds of the present invention are effective HIV protease inhibitors. Utilizing an enzyme assay as described below, the compounds set forth in the examples herein disclosed inhibited the HIV enzyme. The preferred compounds of the present invention and their calculated IC50 (inhibiting concentration 50%, i.e., the concentration at which the inhibitor compound reduces enzyme activity by 50%) values are shown in Table 9. The enzyme method is described below. The substrate is 2-Ile-Nle-Phe(p-NO2)-Gln-ArgNH2. The positive control is MVT-101 (Miller, M. et al, Science, 2, 1149 (1989)) The assay conditions are as follows:
20 mM sodium phosphate, pH 6.4
The above described substrate is dissolved in DMSO, then diluted 10 fold in assay buffer. Final substrate concentration in the assay is 80 μM. HIV protease is diluted in the assay buffer to a final enzyme concentration of 12.3 nanomolar, based on a molecular weight of 10,780.
The final concentration of DMSO is 14% and the final concentration of glycerol is 18%. The test compound is dissolved in DMSO and diluted in DMSO to 10× the test concentration; 10 μl of the enzyme preparation is added, the materials mixed and then the mixture is incubated at ambient temperature for 15 minutes. The enzyme reaction is initiated by the addition of 40 μl of substrate. The increase in fluorescence is monitored at 4 time points (0, 8, 16 and 24 minutes) at ambient temperature. Each assay is carried out in duplicate wells.

The test system of data set [2] is HIV-1 in CEM cells. The data set is described as follows: CEM cell assay: HIV inhibition in acutely infected cells (tetrazolium/MTT colorimetric). It counts as cell-based. As to conditions: Human immunodeficiency virus 1, CCRF-CEM, 168 h, CEM cells acutely infected with HIV-1, 7 days, MTT readout. The procedure:
The effectiveness of various compounds were determined in the above-described enzyme assay and in a CEM cell assay. The HIV inhibition assay method of acutely infected cell infected cells is an automated tetrazolium based colorimetric assay essentially that reported by Pauwles et al, J. Virol. Methods, 20 ≡, 309-321 (1988). Assays were performed in 96-well tissue culture plates. CEM cells, a CD4^+ cell line. were grown in RPMI-1640 medium (Gibco) supplemented with a 10% fetal calf serum and were then treated with polybrene (2 μg/ml). An 80 μl volume of medium containing 1×10^4 cells was dispensed into each well of the tissue culture plate. To each well was added a 100 μl volume of test compound dissolved in tissue culture medium (or medium without test compound as a control) to achieve the desired final concentration and the cells were incubated at 37° C. for 1 hour. A frozen culture of HIV-1 was diluted in culture medium to a concentration of 5×10^4 TCID50 per ml (TCID50=the dose of virus that infects 50% of cells in tissue culture), and a 20 μL volume of the virus sample (containing 1000 TCID50 of virus) was added to wells containing test compound and to wells containing only medium (infected control cells). Several wells received culture medium without virus (uninfected control cells). Likewise, the intrinsic toxicity of the test compound was determined by adding medium without virus to several wells containing test compound. In summary, the tissue culture plates contained the following experiments: [table] In experiments 2 and 4 the final concentrations of test compounds were 1, 10, 100 and 500 μg/ml. Either azidothymidine (AZT) or dideoxyinosine (ddI) was included as a positive drug control. […] DMSO was added to all control wells at an appropriate concentration. Following the addition of virus, cells were incubated at 37° C. in a humidified, 5% CO2 atmosphere for 7 days. Test compounds could be added on days 0, 2 and 5 if desired. On day 7, post-infection, the cells in each well were resuspended and a 100 μl sample of each cell suspension was removed for assay. A 20 μL volume of a 5 mg/ml solution of 3-(4,5-dimethylthiazol-2-yl)-2,5-diphenyltetrazolium bromide (MTT) was added to each 100 μL cell suspension, and the cells were incubated for 4 hours at […] in a 5% CO2 environment. […] To each sample was added 100 μl of 10% sodium dodecylsulfate in 0.01 N HCl to lyse the cells, and samples were incubated overnight. The absorbance at 590 nm was determined for each sample using a Molecular Devices microplate reader. Absorbance values for each set of wells is compared to assess viral control infection, uninfected control cell response as well as test compound by cytotoxicity and antiviral efficacy.

The IC50 is the concentration at which inhibition is half-maximal. Compound `CC(C)CN(C[C@@H](O)[C@H](Cc1ccccc1)NC(=O)[C@H](C)C[S+](C)[O-])S(=O)(=O)c1ccc2c(c1)OCO2` (single isomer, unassigned) [Entry 6] gave an IC50 in data set [1] of 7 nM.
Usually EC50 stands for the concentration giving half of the maximal effect. Lower therefore signals greater potency. In data set [2], `CC(C)CN(C[C@@H](O)[C@H](Cc1ccccc1)NC(=O)[C@H](C)CS(C)(=O)=O)S(=O)(=O)c1ccc2c(c1)OCO2` [Entry 1] yielded a concentration for a half-maximal effect (EC50) of 20 nM. The compound also came in with an IC50 in data set [1] of 2 nM.
Consider `CC(C)CN(C[C@@H](O)[C@H](Cc1ccccc1)NC(=O)[C@H](C)CS(C)(=O)=O)S(=O)(=O)c1ccc2c(c1)CCO2` [Entry 2], for which, in data set [2], the EC50 came out at 28 nM. This compound also registered an IC50 in data set [1] of 2 nM.
In turn, `CC(C)CN(C[C@@H](O)[C@H](Cc1ccccc1)NC(=O)[C@H](C)CS(C)(=O)=O)S(=O)(=O)c1ccc2ncsc2c1` [Entry 3] returned an EC50 in data set [2] of 26 nM. Moreover, the midpoint of inhibition in data set [1], the IC50, lay at 3 nM.
`CC(C)CN(C[C@@H](O)[C@H](Cc1ccccc1)NC(=O)[C@H](C)CS(C)(=O)=O)S(=O)(=O)c1ccc2c(c1)OCCO2` [Entry 4] had an EC50 in data set [2] of 12 nM. In data set [1], this compound came in with a half-inhibitory concentration (IC50) of 2 nM.
As for `CC(C)CN(C[C@@H](O)[C@H](Cc1ccccc1)NC(=O)[C@H](C)C[S+](C)[O-])S(=O)(=O)c1ccc2c(c1)OCO2` (stereo partly drawn) [Entry 5], in data set [2], the half-maximal effective concentration (EC50) turned out to be 52 nM. 2 nM corresponded to half-maximal inhibition in data set [1] (IC50).
By melting point is commonly meant the temperature of the solid-liquid transition. Regarding `CC(C)CN(C[C@@H](O)[C@H](Cc1ccccc1)NC(=O)[C@H](C)CS(C)(=O)=O)S(=O)(=O)c1ccc2c(c1)OCO2` [Example 47, N-[2R-hydroxy-3-[(2-methylpropyl)[(1,3-benzodioxol-5-yl)sulfonyl]amino]-1S-(phenylmethyl)propyl]-2S-methyl-3-(methylsulfonyl)propanamide], the melting point was 131.8 to 133.8 °C.

(Values after patent US6667307B2, “Sulfonylalkanoylamino hydroxyethylamino sulfonamide retroviral protease inhibitors” (G.D. Searle & Co., priority 1995, dated 2003).)
